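All cell lines were grown in 96-well plates and treated with compound for 48 hours. Here, GI50 denotes the concentration required for 50% inhibition of growth.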 Activity calls are given as the source filed them. Rule as the data show it: active = GI50 up to about 1.1 µM and inactive = higher.
Assays:
Assay in all cases: growth of human tumour cells (NCI), 48 h
[1] = tested on: A498
[2] = tested on: BT-549
[3] = tested on: CAKI-1
[4] = tested on: EKVX
[5] = tested on: HCC 2998
[6] = tested on: HOP-92
[7] = tested on: M14
[8] = tested on: MDA-MB-435
[9] = tested on: Malme-3M
[10] = tested on: NCI-H460
[11] = tested on: OVCAR-3
[12] = tested on: OVCAR-5
[13] = tested on: OVCAR-8
[14] = tested on: RPMI-8226
[15] = tested on: SF-268
[16] = tested on: SN12C
[17] = tested on: SNB-19
[18] = tested on: SW-620
[19] = tested on: UACC-257
[20] = tested on: UO-31

Measured: GI50

O=c1[nH]nc(Nc2ccc(Cl)cc2)c2nnn(C3CCCCC3)c12
inactive: [1] 37.4 µM | [2] > 100 µM | [3] 16.2 µM | [4] 84.1 µM | [5] > 100 µM | [6] 22.4 µM | [7] 55.1 µM | [8] 46.3 µM | [9] 50.8 µM | [10] 41.4 µM | [11] 37.2 µM | [12] > 100 µM | [13] 14.1 µM | [14] 50.7 µM | [15] 36.6 µM | [16] > 100 µM | [17] > 100 µM | [18] 62.4 µM | [19] > 100 µM | [20] > 100 µM

COc1cccc(C2c3cc4c(cc3OC(N3CCCCC3)C2C)OCO4)c1OC (stereo not given)
inactive: [1] 9.42 µM | [2] 9.06 µM | [3] 2.58 µM | [4] 13.7 µM | [5] 15.3 µM | [6] 5.4 µM | [7] 12.7 µM | [8] 11.3 µM | [9] 11.9 µM | [10] 4.46 µM | [11] 4.15 µM | [12] 17.7 µM | [13] > 100 µM | [14] 3.44 µM | [15] 8.2 µM | [16] 5.73 µM | [17] 14.8 µM | [18] 3.93 µM | [19] 5.94 µM | [20] 7.05 µM

COc1ccc(CCN2CCN(CCc3ccc(OC)cc3)CC2)cc1
inactive: [1] > 100 µM | [2] > 100 µM | [3] > 100 µM | [4] > 100 µM | [5] > 100 µM | [6] > 100 µM | [7] > 100 µM | [8] > 100 µM | [9] > 100 µM | [10] > 100 µM | [11] > 100 µM | [12] > 100 µM | [13] > 100 µM | [14] > 100 µM | [15] > 100 µM | [16] > 100 µM | [17] > 100 µM | [18] > 100 µM | [19] > 100 µM | [20] > 100 µM

N#C[BH2-][n+]1ccc(C(=O)NNCc2ccc(F)cc2)cc1
inactive: [1] > 100 µM | [2] > 100 µM | [3] > 100 µM | [4] > 100 µM | [5] > 100 µM | [6] > 100 µM | [7] > 100 µM | [8] > 100 µM | [9] > 100 µM | [10] > 100 µM | [11] > 100 µM | [12] > 100 µM | [13] > 100 µM | [14] > 100 µM | [15] > 100 µM | [16] > 100 µM | [17] > 100 µM | [18] > 100 µM | [19] > 100 µM | [20] 59.7 µM

COc1cccc2cc(C(=O)O)c(=O)oc12
inactive: [1] > 100 µM | [2] > 100 µM | [3] > 100 µM | [4] > 100 µM | [5] > 100 µM | [6] > 100 µM | [7] > 100 µM | [8] > 100 µM | [9] > 100 µM | [10] > 100 µM | [11] > 100 µM | [12] > 100 µM | [13] > 100 µM | [14] > 100 µM | [15] > 100 µM | [16] > 100 µM | [17] > 100 µM | [18] > 100 µM | [19] > 100 µM | [20] > 100 µM
